Measurements published in PMC9738565, “N1-Benzyl Tryptamine Pan-SHIP1/2 Inhibitors: Synthesis and Preliminary Biological Evaluation as Anti-Tumor Agents” (Molecules, 2022).
pIC50: −log10 of the molar value. Where two headings read alike, the source gives them in different places. Marks after values point to notes of the source that are not given here.

Experiments:
tSHIP1 = molecular target: T1, tSHIP1 (Homo sapiens, UniProt Q92835); assay: Fluorescence Polarization (FP) assay for the detection of PI(3,4)P2, SHIP1; assay type: biochemical; details: FP assay; read-out: IC50 SHIP1 (Via FP)
T1 sequence (Q92835 399-715 limits assumed): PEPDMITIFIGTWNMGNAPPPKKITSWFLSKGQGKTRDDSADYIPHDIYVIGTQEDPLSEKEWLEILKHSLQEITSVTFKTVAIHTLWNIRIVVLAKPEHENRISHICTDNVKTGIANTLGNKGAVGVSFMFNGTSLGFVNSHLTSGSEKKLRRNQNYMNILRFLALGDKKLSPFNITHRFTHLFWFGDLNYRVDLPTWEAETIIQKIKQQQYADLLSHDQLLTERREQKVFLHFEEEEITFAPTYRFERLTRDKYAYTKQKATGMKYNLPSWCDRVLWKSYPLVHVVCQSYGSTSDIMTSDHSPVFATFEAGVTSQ
Method: (§1) These compounds were then tested for their activity against the two SHIP paralogs, SHIP1 and SHIP2 in the colorimetric malachite green phosphatase assay. The malachite green assay detects the amount of free phosphate produced from enzymatic reactions with SHIP and an inositol phospholipid substrate.
4.8. Fluorescence Polarization (FP) Assays for the Detection of PI(3,4)P2
The FP Assay for the detection of PI(3,4)P2 (Echelon Biosciences) was performed using tSHIP1 [48] with serial dilutions of the tryptamines in DMSO according to the manufacturer’s recommendation as previously described. […] 40 µL of 4 µM PIP3 (PI(3,4,5)P3-diC8) in Rx buffer is added to each reaction and incubated at 37 °C for 20 min, followed by heat inactivation for 3 min at 95 °C. Reactions were spun down briefly and 10 µL of each reaction was added in 6 replicate wells to a black 384-well plate provided with the FP kit. 10 µL of 1X reconstituted Detector (a phosphoinositide binding protein) in PBS is then added to each well, followed by 5 µL of 1X freshly diluted Probe (in PBS, a fluorophore-labeled phosphoinositide) protected from light. Assay plates are gently tapped to mix, the plate is sealed and spun down briefly and the reaction is allowed to equilibrate for 60 min at room temperature protected from light.

SHIP2 [1] = molecular target: T2, SHIP2 (Homo sapiens, UniProt O15357); assay: Fluorescence Polarization (FP) assay for the detection of PI(3,4)P2, SHIP2; assay type: biochemical; details: read-out: IC50 SHIP2 (via FP)
T2 construct: purchased Echelon Biosciences
T2 sequence (O15357 1-1258): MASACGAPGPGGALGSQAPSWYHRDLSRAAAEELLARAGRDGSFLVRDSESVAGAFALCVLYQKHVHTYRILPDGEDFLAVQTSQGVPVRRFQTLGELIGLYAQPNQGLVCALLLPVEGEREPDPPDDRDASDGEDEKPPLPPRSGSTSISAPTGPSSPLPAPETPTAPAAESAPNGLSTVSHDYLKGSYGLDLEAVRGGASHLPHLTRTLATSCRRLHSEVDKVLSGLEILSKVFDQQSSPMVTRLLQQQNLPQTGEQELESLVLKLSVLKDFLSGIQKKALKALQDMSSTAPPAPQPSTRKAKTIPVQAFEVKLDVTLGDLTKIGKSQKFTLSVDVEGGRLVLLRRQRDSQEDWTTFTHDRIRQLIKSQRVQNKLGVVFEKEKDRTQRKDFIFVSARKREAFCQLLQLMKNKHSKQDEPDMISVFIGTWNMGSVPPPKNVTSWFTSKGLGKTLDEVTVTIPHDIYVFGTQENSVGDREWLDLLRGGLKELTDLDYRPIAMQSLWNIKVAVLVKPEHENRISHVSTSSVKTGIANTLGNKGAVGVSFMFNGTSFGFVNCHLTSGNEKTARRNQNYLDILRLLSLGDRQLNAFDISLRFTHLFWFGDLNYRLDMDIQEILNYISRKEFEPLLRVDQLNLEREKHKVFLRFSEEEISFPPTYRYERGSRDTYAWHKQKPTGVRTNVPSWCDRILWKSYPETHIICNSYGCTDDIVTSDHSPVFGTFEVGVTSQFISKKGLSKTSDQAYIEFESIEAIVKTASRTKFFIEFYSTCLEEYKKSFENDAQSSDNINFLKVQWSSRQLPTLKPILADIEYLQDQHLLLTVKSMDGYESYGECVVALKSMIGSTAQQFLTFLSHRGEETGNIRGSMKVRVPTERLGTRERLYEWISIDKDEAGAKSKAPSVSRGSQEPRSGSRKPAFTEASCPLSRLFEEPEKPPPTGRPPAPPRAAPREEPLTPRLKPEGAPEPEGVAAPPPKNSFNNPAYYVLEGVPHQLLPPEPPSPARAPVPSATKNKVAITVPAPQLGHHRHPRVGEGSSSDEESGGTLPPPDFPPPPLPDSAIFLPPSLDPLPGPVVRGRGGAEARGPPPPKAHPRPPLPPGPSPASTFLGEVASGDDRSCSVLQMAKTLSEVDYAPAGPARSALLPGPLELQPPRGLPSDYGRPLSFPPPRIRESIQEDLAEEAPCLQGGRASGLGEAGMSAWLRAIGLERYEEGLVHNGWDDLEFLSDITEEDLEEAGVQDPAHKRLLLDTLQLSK

[2] = tested on: recombinant human truncated SHIP1 (tSHIP1); assay: Malachite green phosphatase release assay, SHIP1; assay type: biochemical; details: for Malachite (250 µM) % Inhib. SHIP1: 250 µM compound; for Malachite (500 µM) % Inhib. SHIP1: 500 µM compound; for activity against SHIP1 (in words): summary of Table 1
Method: These compounds were then tested for their activity against the two SHIP paralogs, SHIP1 and SHIP2 in the colorimetric malachite green phosphatase assay. The malachite green assay detects the amount of free phosphate produced from enzymatic reactions with SHIP and an inositol phospholipid substrate. The Malachite assay is useful for ruling out compounds that are fluorescent or have aggregation issues and is inexpensive, so it was utilized as the primary screen even though it is not as sensitive as other assays.
(§2) 4.7. Malachite Green Phosphatase Release Assays
(§3) Malachite green assays to monitor phosphatase release (Echelon Biosciences) were performed with recombinant human truncated SHIP1 (tSHIP1) and SHIP2 (Echelon Biosciences). Serial dilutions of the compounds dissolved in DMSO were added to the recombinant enzymes diluted in reaction buffer Rx (50 mM Hepes pH 7.4, 150 mM NaCl, 1 mM MgCl2, 0.25 mM EDTA) in triplicate reaction wells in 96-well plates. After incubation for 2 min at room temperature, 2.5 µL of 1 mM phosphatidylinositol 3,4,5-trisphosphate diC8 (PI(3,4,5)P3-diC8, Echelon Biosciences) was added to each reaction to a final concentration of 100 µM in a final volume of 25 µL /well. Following a 20 min incubation at 37 °C, 100 µL of Malachite Green solution (Echelon Biosciences) was added to each well and the plates were incubated at room temperature in the dark for 15 min. Plates were then read at 620 nm on a plate reader (Synergy 2, BioTek, Santa Clara, CA, USA). In addition, 3α-Aminocholestane, a known SHIP1 inhibitor, and AS1949490, a known SHIP2 inhibitor, were used as positive controls.

SHIP2 [3] = molecular target: T2, SHIP2; assay: Malachite green phosphatase release assay, SHIP2; assay type: biochemical; details: for inhibition at 250 µM: read-out: Malachite (250 µM) % Inhib. SHIP2; for inhibition at 500 µM: read-out: Malachite (500 µM) % Inhib. SHIP2; for activity against SHIP2 (in words): summary of Table 1
Method: as §1, §2, §3

[4] = Behaviour of compound when mixed with assay buffer; assay type: physicochemical
Method: Compounds with modifications of the primary amine of the tryptamine were also tested. […] While SHIP1 agonists may have applications as anti-inflammatories, the agonist activity of 15 was weak and therefore was not further pursued. […] While these analogs may present a path towards selective inhibitors of SHIP2, these compounds will not be useful in determining the effects of pan-SHIP inhibition in tumor models.

SMILES | pIC50 (tSHIP1) | pIC50 (SHIP2 [1]) | Malachite (250 µM) % Inhib. SHIP1 [2] | Malachite (500 µM) % Inhib. SHIP1 [2] | activity against SHIP1 (in words) [2] | inhibition at 250 µM (SHIP2 [3]; 250 µM compound) [%] | inhibition at 500 µM (SHIP2 [3]; 500 µM compound) [%] | activity against SHIP2 (in words) (SHIP2 [3]) | inhibition at 250 µM (SHIP2 [3]) [%] | inhibition at 500 µM (SHIP2 [3]) [%] | solubility behaviour in buffer [4]
CSc1ccc2c(c1)c(CCN)c(C)n2Cc1ccccc1.Cl [Compound 7e, 2-(1-Benzyl-2-methyl-5-(methylthio)-1H-indol-3-yl)ethanaminium chloride] | 4.89 | 4.92 | 0% | 40% | active analog | 28 | 39 | active analog |  |  | 
CCNCCc1c(C)n(Cc2ccccc2Cl)c2ccc(SC)cc12 [Compound 17, (2{1-[(2-Chlorophenyl)methyl]-2-methyl-5-(methylsulfanyl-1H-indol-3-yl}ethyl)ethylaminium chloride] |  |  | 1% | 21% | no inhibition | 13 | 47 |  |  |  | 
CSc1ccc2c(c1)c(CCNS(C)(=O)=O)c(C)n2Cc1ccccc1Cl [Compound 15, N-(2{1-[(2-Chlorophenyl)methyl]-2-methyl-5-(methylsulfanyl)-1H-indol-3-yl}ethyl) methanesulfonamide] |  |  | −10% | −27% | weak agonist |  |  |  |  |  | 
CSc1ccc2[nH]c(C)c(CCN)c2c1.Cl [Compound 7f, 2-(2-Methyl-5-(methylthio)-1H-indol-3-yl)ethanaminium chloride] |  |  | 0% | 0% | virtually no activity |  |  | virtually no activity | 0 | 2 | 
CSc1ccc2c(c1)c(CCN(C)C)c(C)n2Cc1ccccc1Cl [Compound 14, (2{1-[(2-Chlorophenyl)methyl]-2-methyl-5-(methylsulfanyl-1H-indol-3-yl}ethyl)dimethylaminium chloride] |  |  | 0% | 5% | inactive | 0 | 6 | inactive |  |  | 
CSc1ccc2c(c1)c(CCNC(C)=O)c(C)n2Cc1ccccc1Cl [Compound 16] |  |  | 25% ^a | 0% ^a |  | 0 | 0 |  |  |  | tended to precipitate when mixed with buffer
CNCCc1c(C)n(Cc2ccccc2Cl)c2ccc(SC)cc12 [Compound 13, (2{1-[(2-Chlorophenyl)methyl]-2-methyl-5-(methylsulfanyl-1H-indol-3-yl}ethyl)methylaminium chloride] |  |  | 0% | 9% | no inhibition | 14 | 38 |  |  |  | 
CSc1ccc2c(c1)c(CCN)c(C)n2Cc1ccc(Br)cc1.Cl [Compound 7c, 2-(1-(4-Bromobenzyl)-2-methyl-5-(methylthio)-1H-indol-3-yl)ethanaminium chloride] | 4.29 | 4.24 | 3% | 47% |  | 30 | 38 |  |  |  | 
CSc1ccc2c(c1)c(CCN)c(C)n2Cc1ccc(Cl)cc1.Cl [Compound 7b, 2-(1-(4-Chlorobenzyl)-2-methyl-5-(methylthio)-1H-indol-3-yl)ethanaminium chloride] | 4.96 |  | 0% | 33% | significant activity | 18 | 49 | significant activity |  |  | 
